One test deals with T1, human PLK4 (Homo sapiens, UniProt O00444).
T1 construct: amino terminal GST fusion of residues 1-391 of human PLK4; made in house; host or cells: E. coli
T1 sequence (O00444 1-391): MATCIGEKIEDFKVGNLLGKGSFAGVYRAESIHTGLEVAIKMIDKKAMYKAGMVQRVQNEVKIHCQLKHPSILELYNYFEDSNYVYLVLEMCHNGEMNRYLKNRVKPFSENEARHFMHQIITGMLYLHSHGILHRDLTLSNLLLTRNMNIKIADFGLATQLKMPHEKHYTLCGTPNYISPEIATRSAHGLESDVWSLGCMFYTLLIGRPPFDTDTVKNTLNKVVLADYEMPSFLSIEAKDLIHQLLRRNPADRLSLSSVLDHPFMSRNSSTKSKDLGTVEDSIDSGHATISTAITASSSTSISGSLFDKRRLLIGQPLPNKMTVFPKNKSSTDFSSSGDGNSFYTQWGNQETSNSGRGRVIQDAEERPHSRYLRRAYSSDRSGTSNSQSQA
The test is described as follows: PLK4 inhibition assay (indirect ELISA). The test is classed as biochemical. As to conditions: 15 μM ATP. An outline of the steps:
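Dephosphorylated GST-PLK4 (residues 1-391, E. coli; 4 nM) was preincubated 15 min with compound, then reacted 30 min with 15 μM ATP in HEPES pH 7.4, MgCl2, Brij 35 on MBP-coated plates. Phospho-MBP was detected by antibody/HRP ELISA at 450 nm; IC50 from 10-point titration by 4-parameter logistic fit, or single 10 μM % inhibition.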
For orientation: In an ELISA, binding on a coated surface is turned into a signal by an enzyme label.

The subject of test [1] is ovarian cancer cells (PA-1). Kind of test: Cancer cell line growth inhibition (SRB assay). The format is cell-based. The settings on record: Homo sapiens, PA-1; read-out: Cancer Cell Line GI50 Range PA-1.
The next test concerns TICs (Ovarian 2393A). Kind of test: Ovarian tumor-initiating cell growth inhibition (Alamar Blue). The format is cell-based. As to conditions: 144 h; Ovarian 2393A TICs, 6 days; read-out: Tumor Initiating Cell GI50 Range Ovarain 2393A. In general terms: Resazurin is reduced to fluorescent resorufin, in cell work by metabolically active cells.
The target in the next test is T2, Aurora-B (Homo sapiens, UniProt Q96GD4).
T2 construct: purchased Millipore Corporation
The test is described as follows: Panel of 270 human kinases (Millipore). The test is classed as biochemical. How it is done: The inhibitory activity of selected compounds of the invention (A335, A405, A410, A261, A300 and A363) was evaluated against a panel of 270 different human kinase enzymes by Millipore Corporation. The % Inhibition was determined by the formula: % Inhibition=100×(1−(experimental value−background value)/(high activity control−background value)).

Test [2] concerns colon cancer cells (HCT116). Kind of test: Cancer cell line growth inhibition (SRB assay). The test is classed as cell-based. The settings on record: Homo sapiens, HCT-116; read-out: Cancer Cell Line GI50 Range HCT116.
A further test concerns TICs (Colon 12). The test is described as follows: Colon tumor-initiating cell growth inhibition (Alamar Blue). The format is cell-based. The settings on record: 216 h; Colon 12 TICs, 9 days; read-out: Tumor Initiating Cell GI50 Range Colon 12.
A further test concerns Breast cancer cells. The test is described as follows: Cancer cell line growth inhibition (SRB assay). The format is cell-based. The settings on record: Homo sapiens; MDA-MB-468; read-out: Cancer Cell Line GI50 Range MDA-MB-468. A general note: In SRB staining, fixed cells bind dye roughly in proportion to their protein.
The target of the next test is T3, human TTK (Homo sapiens, UniProt P33981).
T3 construct: amino terminal GST fusion of full length human TTK; purchased Invitrogen
T3 sequence (P33981 1-857): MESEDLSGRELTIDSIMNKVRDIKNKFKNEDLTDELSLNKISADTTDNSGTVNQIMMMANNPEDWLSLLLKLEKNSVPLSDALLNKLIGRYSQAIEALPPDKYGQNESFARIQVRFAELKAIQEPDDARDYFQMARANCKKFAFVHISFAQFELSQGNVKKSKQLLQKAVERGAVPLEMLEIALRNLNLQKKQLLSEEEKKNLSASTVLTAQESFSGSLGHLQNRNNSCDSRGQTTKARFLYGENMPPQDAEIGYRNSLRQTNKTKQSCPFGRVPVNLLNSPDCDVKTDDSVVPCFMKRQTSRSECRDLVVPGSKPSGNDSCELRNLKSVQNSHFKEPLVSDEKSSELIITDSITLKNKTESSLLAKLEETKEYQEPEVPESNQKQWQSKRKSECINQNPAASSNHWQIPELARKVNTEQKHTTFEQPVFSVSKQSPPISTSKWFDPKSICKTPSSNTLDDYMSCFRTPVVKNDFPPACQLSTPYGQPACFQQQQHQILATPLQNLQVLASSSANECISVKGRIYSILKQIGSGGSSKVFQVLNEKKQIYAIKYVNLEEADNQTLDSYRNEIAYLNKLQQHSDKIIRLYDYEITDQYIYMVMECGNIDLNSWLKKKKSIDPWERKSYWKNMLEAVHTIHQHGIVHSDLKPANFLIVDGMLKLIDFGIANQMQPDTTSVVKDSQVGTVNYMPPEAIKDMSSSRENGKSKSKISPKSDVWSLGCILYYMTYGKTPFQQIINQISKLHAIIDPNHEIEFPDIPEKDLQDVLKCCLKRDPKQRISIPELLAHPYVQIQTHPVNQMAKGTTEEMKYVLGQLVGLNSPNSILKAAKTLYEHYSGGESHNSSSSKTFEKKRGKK
The test is described as follows: TTK inhibition assay (indirect ELISA). As to conditions: read-out: TTK IC50 Range. The test is classed as biochemical.

T2 sequence (Q96GD4 whole entry): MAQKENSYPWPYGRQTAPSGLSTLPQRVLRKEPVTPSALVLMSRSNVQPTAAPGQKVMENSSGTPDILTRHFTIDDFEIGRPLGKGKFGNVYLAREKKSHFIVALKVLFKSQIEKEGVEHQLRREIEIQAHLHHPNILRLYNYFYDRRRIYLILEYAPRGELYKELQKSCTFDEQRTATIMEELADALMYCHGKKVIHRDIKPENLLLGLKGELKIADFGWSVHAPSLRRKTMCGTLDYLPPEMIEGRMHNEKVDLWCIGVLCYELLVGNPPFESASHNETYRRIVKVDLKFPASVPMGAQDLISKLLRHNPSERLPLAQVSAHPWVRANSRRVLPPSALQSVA
Text for TICs (Ovarian 2393A): Materials and Methods: Non-tissue or tissue cultured treated T-75 flask and 96-well plates were purchased from VWR. Vitamin B-27 supplement, MEM NEAA (minimum essential medium non essential amino acids), sodium pyruvate, L-glutamine, N2 supplement, penicillin-streptomycin and fungizone/amphotericin B were obtained from Invitrogen. Lipid mixture, heparin and EGF were purchased from Sigma; bFGF from BD Biosciences. Tumor Initiating Cells (TICs) from colon were routinely maintained using non-tissue cultured treated T-75 flasks in DMEM:F12 medium containing 0.2×B-27 supplement, 4 ug/ml heparin, 1×MEM NEAA, 1× sodium pyruvate, 1 mM glutamine, 10 pg/ul bFGF, 20 pg/ul EGF, 1×N2 supplement, lipid mixture, penicillin-streptomycin and fungizone/amphotericin B. Ovarian TICs were routinely maintained using tissue cultured treated T-75 flasks in DMEM:F12 medium containing 1×B-27 supplement, 4 ug/ml heparin, 20 pg/ul bFGF, 20 pg/ul EGF and penicillin-streptomycin.
Assay Protocol: Compounds described herein were dissolved in DMSO and further diluted in cell culture medium for GI50 determination. Colon TICs were trypsinized and seeded into non-tissue cultured treated 96-well plates with 4,000 cells/well. After 24 h, compound was added into the cell culture at different concentrations, and the final concentration of DMSO was adjusted to 0.1%. Cells were then cultured at 37° C. for 9 days. Ovarian TICs were trypsinized and seeded into tissue cultured treated 96-well plates with 1,000 cells/well. After 24 h, compound was added into the cell culture at different concentrations, and the final concentration of DMSO was adjusted to 0.1%. Cells were then cultured at 37° C. for 6 days. Cell viability was assessed by Alamar Blue assay: 10 ul of Alamar Blue was added into each well. After 4 hours incubation at 37° C., fluorescence was recorded at excitation 544 and emission 590. GI50 (Growth inhibition) was calculated using GraphPad Prism 4.0 software.

As usually defined, the IC50 is the concentration that gives 50% inhibition. A word on the GI50: it is the concentration that inhibits growth by half. As a reminder, the inhibition is how much of the control response was suppressed. Take `CC(C)C[C@@H](NC(=O)c1ccc2[nH]nc(-c3ccc(N4CCN(C5COC5)CC4)cc3)c2c1)c1ccccc1Cl` [Example A300, (R)-N-(1-(2-chlorophenyl)-3-methylbutyl)-3-(4-(4-(oxetan-3-yl)piperazin-1-yl)phenyl)-1H-indazole-5-carboxamide]: the IC50 is less than 50 nM at human PLK4 and less than 100 nM at human TTK. Further, the GI50 in test [1] is less than 100 nM; with TICs (Ovarian 2393A), 100 to 500 nM; in test [2] it was less than 100 nM; in the test on TICs (Colon 12) it was less than 100 nM; with Breast cancer cells, less than 100 nM. This compound yielded an inhibition at 1 µM at Aurora-B of 69%.

`CC(C)[C@H](NC(=O)c1ccc2[nH]nc(-c3ccc(OC4CC5CCC(C4)N5C4COC4)cc3)c2c1)c1ccccc1Cl` (stereo partly shown) [Example A335]: the concentration for half-maximal inhibition (IC50) is less than 50 nM on human PLK4 and less than 100 nM at human TTK. Further, the concentration for 50% growth inhibition (GI50) was less than 100 nM in test [1]; less than 100 nM in the test with TICs (Ovarian 2393A); less than 100 nM in test [2]; less than 100 nM in the test with TICs (Colon 12); 100 to 500 nM with Breast cancer cells. This compound registered an inhibition at 1 µM at Aurora-B of 87%.

(Values after patent US9580390B2, “Indazole compounds as kinase inhibitors and method of treating cancer with same” (University Health Network, priority 2011, dated 2017).)
